Results reported in patent publication EP4768489A1, “CYCLOBUTYL-CONTAINING COMPOUNDS” (Chia Tai Tianqing Pharmaceutical Group Co., Ltd., priority 2023, dated 2025).
Residue numbers refer to the chain shown, from its start.

What was measured:
[1] = molecular target: T1, AR in LNCaP (T878A) cells (Homo sapiens, UniProt P10275, T878A); experiment: Assay on degradation activity for AR in LNCaP (T878A) cells (HTRF); assay type: cell-based; details: maximum degradation rate, 24 h
T1 construct: Assay on degradation activity for AR in LNCaP (T878A) cells; endogenous in cells; host or cells: LNCaP cells
T1 sequence (P10275 1-920 T878A): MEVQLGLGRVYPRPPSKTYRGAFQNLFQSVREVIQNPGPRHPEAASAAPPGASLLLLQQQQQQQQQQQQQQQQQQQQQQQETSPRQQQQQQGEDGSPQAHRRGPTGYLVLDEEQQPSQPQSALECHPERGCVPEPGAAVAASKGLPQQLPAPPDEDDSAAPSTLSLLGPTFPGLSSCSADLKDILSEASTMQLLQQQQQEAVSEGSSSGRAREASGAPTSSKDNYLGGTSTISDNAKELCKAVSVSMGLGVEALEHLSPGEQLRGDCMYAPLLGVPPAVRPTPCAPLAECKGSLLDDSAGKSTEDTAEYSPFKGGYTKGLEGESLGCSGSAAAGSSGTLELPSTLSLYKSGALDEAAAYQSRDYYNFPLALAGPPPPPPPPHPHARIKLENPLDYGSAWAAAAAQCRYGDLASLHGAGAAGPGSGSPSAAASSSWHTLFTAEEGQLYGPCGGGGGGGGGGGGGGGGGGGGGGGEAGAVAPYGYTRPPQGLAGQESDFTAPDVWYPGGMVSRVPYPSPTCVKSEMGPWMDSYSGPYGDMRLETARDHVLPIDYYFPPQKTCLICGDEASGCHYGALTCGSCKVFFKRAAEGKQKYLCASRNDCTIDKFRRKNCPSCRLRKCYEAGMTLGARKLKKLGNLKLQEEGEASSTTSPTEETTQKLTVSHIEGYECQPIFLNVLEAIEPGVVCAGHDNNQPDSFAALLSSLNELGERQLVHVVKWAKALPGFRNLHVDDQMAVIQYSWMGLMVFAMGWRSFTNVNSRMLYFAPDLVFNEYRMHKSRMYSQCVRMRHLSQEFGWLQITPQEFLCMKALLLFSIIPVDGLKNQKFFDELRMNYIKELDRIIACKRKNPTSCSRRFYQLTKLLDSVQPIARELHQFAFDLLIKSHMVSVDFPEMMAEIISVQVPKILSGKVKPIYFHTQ
Protocol: (§1) The detection was carried out using the HTRF HUMAN ANDROGEN RECEPTOR DETECTION KIT (cisbio, 64ANDRPEG), 4× Supplemented Lysis buffer was prepared using the Blocking reagent stock solution (100×) and Lysis buffer stock solution (4×), and 1× Supplemented Lysis buffer was prepared using the 4× Supplemented Lysis buffer and ddH2O. Premixed antibody solutions were prepared using Detection buffer, Androgen Receptor Eu Cryptate antibody, and Androgen Receptor d2 antibody.
The cells were cultured overnight in a cell incubator. […] After the cells were oscillated for 40 min at room temperature, 16 µL of the cell lysis buffer was added to a 384-well plate, the Premixed antibody solutions were added at 4 µL/well, and the mixture was left to stand at 25 °C for 2 h. […] Table 2. Degradation activity of compounds for AR in LNCaP (T878A) cells

[2] = molecular target: T2, AR in MDA-PCA-2B (L702H\T878A) cells (Homo sapiens, UniProt P10275, L702H/T878A); experiment: Assay on degradation activity for AR in MDA-PCA-2B (L702H\T878A) cells (HTRF); assay type: cell-based; details: 24 h; for DC50: AR degradation; for Dmax: maximum degradation rate
T2 construct: Assay on degradation activity for AR in MDA-PCA-2B (L702H\T878A) cells; endogenous in cells; host or cells: MDA-PCA-2B cells
T2 sequence (P10275 1-920 L702H/T878A): T1 sequence (P10275 1-920 T878A) with L702H
Protocol: as §1
The cells were cultured overnight in a cell incubator. […] After the cells were oscillated for 40 min at room temperature, 16 µL of the cell lysis buffer was added to a 384-well plate, the Premixed antibody solutions were added at 4 µL/well, and the mixture was left to stand at 25 °C for 2 h. […]

Row | Compound | Dmax [1] | DC50 [2] | Dmax [2]
1 | COc1cc(O[C@H]2C(C)(C)[C@H](NC(=O)c3ccc(N4CCC(CN5CCc6c(ccc7c(C8CCC(=O)NC8=O)noc67)C5)CC4)cc3)C2(C)C)ccc1C#N (stereo partly drawn) [Compound 1] | > 90% | < 500 nM | > 70%
2 | COc1cc(O[C@H]2C(C)(C)[C@H](NC(=O)c3ccc(N4CCC(CN5CCc6c(ccc7c(C8CCC(=O)NC8=O)noc67)C5)CC4)nc3)C2(C)C)ccc1C#N (stereo partly drawn) [Compound 3] | > 90% | < 500 nM | > 70%
3 | COc1cc(O[C@H]2C(C)(C)[C@H](NC(=O)c3cnc(N4CCC(CN5CCc6c(ccc7c(C8CCC(=O)NC8=O)noc67)C5)CC4)nc3)C2(C)C)ccc1C#N (stereo partly drawn) [Compound 4] | > 90% | < 500 nM | > 70%
4 | COc1cc(O[C@H]2C(C)(C)[C@H](NC(=O)c3cnc(N4CCC(CN5CCc6c(ccc7c(C8CCC(=O)NC8=O)noc67)C5)CC4)cn3)C2(C)C)ccc1C#N (stereo partly drawn) [Compound 5] | > 90% | < 500 nM | > 70%
5 | COc1cc(O[C@H]2C(C)(C)[C@H](NC(=O)c3ccc(N4CCC(CN5CCc6c(ccc7c(C8CCC(=O)NC8=O)noc67)C5)CC4)nn3)C2(C)C)ccc1C#N (stereo partly drawn) [Compound 6] | > 90% | < 500 nM | > 70%
